Assay results as given in patent publication US20250382621A1, “IMMUNE EFFECTOR CELL THERAPIES WITH ENHANCED EFFICACY” (Novartis AG, priority 2015, published 2025).
Residue numbers refer to the chain shown, from its start. Structures can show the parent of a compound that is named as a salt. Where two headings read alike, the source gives them in different places.

Legend:
Pan CD3+ T cells = test: Dose response of LSD1 inhibitors on T cell phenotypes; conditions: for EC50: Homo sapiens, T-cell; for CD4+ Tscm percentage: at 100 nM
Method: Cells were isolated from in vitro culture, washed once in MACS+0.5% BSA buffer, and stained on ice using either biotinylated Protein L followed by incubated with a fluorochrome-conjugated streptavidin reagent or an antibody recognizing the given target antigen. In all analyses, the population of interest was gated based on forward vs side scatter characteristics, followed by singlet gating, and live cells were gated.
The following parameters were investigated: • 1. Ratio of CD8/CD4 were calculated; • 2. % Tscm, Tem, Tem of CD3+ T cells; • 3. Ratios of Tscm/Tem and Tscm/Tcm of CD3+ T cells were calculated; • 4. % Tscm, Tem, Tem of CD8+ or CD4+ T cells were calculated; • 5. Ratios of Tscm/Tem and Tscm/Tcm of CD8+ or CD4+ T cells were calculated; and/or • 6. In the case of CAR+-T cells, percentage of Tscm, Tem, Tem of CD19-CAR+ T, and BCMA-10-CAR+ T cells were evaluated.
The Tscm population were evaluated as double CD45RA+CCR7+ or triple CD45RA+CCR7+CD62L+ in a given total live CD3+ or subset CD4+ or CD8+ T cell population. Tem were presented as double CD45RA−CCR7− and Tem as CD45RA−CCR7+ in a given total live CD3+ or subset CD4+ or CD8+ T cell population (FIG. 19 and FIG. 25 illustrate the gating strategies).
In all instances, LSD inhibitor compounds were either resuspended in water (H2O) and/or DMSO, depending on compound solubility. In all instances compounds were added throughout the ex vivo T cell culture, and T cells were washed extensively prior to assay. […] In the figures, “control” refers to vehicle with no LSD inhibitor compound added. For Pan CD3+ T cell expansion experiment, compound treatment was started at 4 h or 24 h after activation; for CART cell production, compound treatment was started at 48 h after viral transduction, and all treatments continued through culture period in all conditions.
Compounds were refreshed every 2-3 days when fresh media is replenished. Following 10 days of expansion, T cells were harvested and de-beaded and their phenotypes were analyzed by flow cytometry using antibodies against CD3, CD4, CD8, CD45RA, CCR7, CD62L, CD27 and CD28 plus live/dead dye to exclude the dead cell population.

full-length LSD1 = molecular target: T1, full-length LSD1 (Homo sapiens, UniProt O60341); test: FL-LSD1 LC-MS assay; assay type: biochemical; conditions: 0.4 nM FL-LSD1, H3K4me1 peptide substrate, 60 min room temperature; read-out: LCMS IC50 (LSD1 IC50 as measured by LCMS)
T1 construct: the full-length LSD1 and 0.5 pM FAD in reaction buffer
Source text: Representative compounds of the present disclosure were serially and separately diluted 3-fold in DMSO to obtain a total of twelve concentrations. […] The data were then fit to a dose response equation using the program Helios to get the IC50 values of the test compound.

T cells = test: T cell phenotype after expansion with LSD1 shRNA; assay type: cell-based, human; conditions: for enrichment of TSCM in resulting CD4+ T cell population: vs normal expansion
Method: Flow cytometry was performed on a four laser Fortessa (Becton-Dickinson).
T cells were isolated by negative selection and expanded with anti-CD3/CD28 beads at a 3:1 ratio for 10 days. On day 1, T cells were transduced with lentiviral expression vectors containing LSD1 shRNA targeting sequences that co-expressed the fluorescent protein mCherry. Following expansion, T cell phenotypes of mCherry+ T cells were assessed by flow cytometry.

[1] = anti-CD3/CD28 beads 3:1, 10 days, mCherry+ cells

c1ccc([C@@H]2C[C@H]2NC2CCNCC2)cc1 (relative stereo) [LSD1i-GSK, rel-N-[(1R,2S)-2-Phenylcyclopropyl]-4-Piperidinamine hydrochloride (1:2)]
total expansion rate of total cells (Pan CD3+ T cells; 10 day expansion): without changing the total expansion rate of total cells
ratio of CD8/CD4 (Pan CD3+ T cells; 10 day expansion, dose escalation): can significantly increase the ratio of CD8/CD4
EC50 (Pan CD3+ T cells; read-out: EC50 for inducing Tscm CD3+ T cells): 1.08 nM
EC50 (Pan CD3+ T cells; read-out: EC50 for inducing Tscm CD8+ T cells): 1.08 nM
CD4+ Tscm percentage (Pan CD3+ T cells): about 5%
ratio of Tscm/Tem of CD3+ T cells (Pan CD3+ T cells; dose elevation, Tscm/Tcm unchanged): increases in response to dose elevation
ratio of Tscm/Tem of CD8+ T cells (Pan CD3+ T cells; dose elevation, hardly seen in the CD4+ population): significantly increases in response to dose elevation
CD3+ Tscm and Tem percentage (Pan CD3+ T cells; observed between 1 nM to 100 nM, Tcm remain the same): could increase/sustain CD3+ Tscm, decrease Tem, in a dose responsive fashion
CD8+ Tscm, CD4+ Tscm and Tem percentage (Pan CD3+ T cells; observed between 1 nM to 100 nM, Tcm unchanged): could increase/sustain CD8+ Tscm and CD4+ Tscm, decrease Tem, in a dose responsive fashion

Cc1cc2c(cc1C#N)c(-c1cccc(N)c1C)cn2[C@H]1CC[C@H](O)CC1 [Compound 93, Trans-3-(3-amino-2-methylphenyl)-1-(4-hydroxycyclohexyl)-6-methyl-1H-indole-5-carbonitrile]
CD4+ Tscm percentage (Pan CD3+ T cells): about 5%

Cc1ccc(-c2ncc(OC[C@@H]3CCNC3)cc2-c2ccc(C#N)cc2)cc1 [Compound C, (R)-4-(5-(pyrrolidin-3-ylmethoxy)-2-(p-tolyl)pyridin-3-yl)benzonitrile]
IC50 (full-length LSD1): 30 nM

LSD1 2: shRNA to LSD1, sequence encoding shRNA SEQ ID NO: 127 (DNA CAGAAGGCCTAGACATTAAACCTCGAGGTTTAATGTCTAGGCCTTCTGTTTTTTGA)
enrichment of TSCM in resulting CD4+ T cell population (T cells; CD4+ T cells): enriched in TSCM
percentage of CD8+ T cells having the TSCM phenotype (CD45RA+CD62L+CCR7+CD27+CD95+) (T cells; [1]): ~50%

B1: LSD1 1A: shRNA to LSD1, sequence encoding shRNA SEQ ID NO: 125 (nucleic acid)
DNA: CGGTTGCTAGAAGCTACATCTGTTAATATTCATAGCAGATGTAGCTTCTAGCAACCGTTTTTTGA
enrichment of TSCM in resulting CD4+ T cell population (T cells; CD4+ T cells): enriched in TSCM
percentage of CD8+ T cells having the TSCM phenotype (CD45RA+CD62L+CCR7+CD27+CD95+) (T cells; [1]): ~50%

B2: LSD1 1B: shRNA to LSD1, sequence encoding shRNA SEQ ID NO: 126 (nucleic acid)
DNA: B1 DNA with C14T, C20T
percentage of CD4+ T cells having the TSCM phenotype (CD45RA+CD62L+CCR7+CD27+CD95+) (T cells; CD4+ T cells, anti-CD3/CD28 beads 3:1, 10 days, mCherry+ cells): up to 20%
percentage of CD8+ T cells having the TSCM phenotype (CD45RA+CD62L+CCR7+CD27+CD95+) (T cells; [1]): ~50%
